# According to the NIST ThermoML archive (doi:10.1021/je800497u):
# Numbers after ± are expanded uncertainties.
# Conditions: 101 kPa, Liquid
mass density (293.15 K) [kg/m3],viscosity (293.15 K) [mPa·s],mass density (298.15 K) [kg/m3],viscosity (298.15 K) [mPa·s],Compound
832.5 ± 0.6,17.18 ± 0.3,829 ± 0.6,14.02 ± 0.25,CCCCCCCCCCCO [1-undecanol]
803.5 ± 0.7,2.272 ± 0.052,799.6 ± 0.7,1.966 ± 0.045,CCCO [propan-1-ol]
814.6 ± 0.6,4.029 ± 0.089,811 ± 0.6,3.494 ± 0.077,CCCCCO [pentan-1-ol]
822.2 ± 0.6,7.104 ± 0.14,818.7 ± 0.6,5.993 ± 0.12,CCCCCCCO [heptan-1-ol]
